{
  "source": "patent EP2924040A1",
  "about": "“2-Amino-1-(o-tolyl)pyrrolo[3,2-b]quinoxaline-3-carboxamide derivates” (Universität Zürich, priority 2014, dated 2015)",
  "type_in_all_cases": "cell-based",
  "key": {"K562": {"system": "K562", "experiment": "Cell culture and GI50 determination (resazurin)", "conditions": "Homo sapiens, K562, 48 hour incubation", "procedure": "MDA-MB-231 (breast cancer) and KM12 (colon cancer) cells obtained from the UZH Cancer Institute, HOP-92 (lung cancer) cells purchased from the National Cancer Institute (NCl) and A498 (kidney cancer) cells obtained from Prof. Krek (Institute of Cell Biology, ETH Zurich) were cultured in Dulbecco's modified Eagle's medium (DMEM) supplemented with 10% (v/v) fetal bovine serum. K562 leukemia cells obtained from Dr. Silvio Hemmi (Institute of Molecular Life Sciences, UZH) were cultured using RPMI medium supplemented with 5% (v/v) fetal bovine serum. All the media was additionally supplemented with 100 units/mL of penicillin, 100µg/mL of streptomycin, 4.5 g/L glucose, 0.11g/L sodium pyrubate and 2mM glutamine and the cells were grown at 37 °C in 5% CO2 atmosphere with 80% relative humidity.\nIn the case of K-562 leukemia cells, these were seeded at a density of 20,000 cells per well in 100µL of RMPI media in a 96 well microtiter plates. […] After 48 hour incubation, cell viability was assessed by measuring the ability of the cells to process resazurin. Resazurin was added to every well to obtain a final concentration of 86nmol/L, and after 3 hours, the fluorescence was quantified using a fluorescence microplate reader (Biotek, FLx800™) at the respective excitation and emission wavelength of 560 and 590 nm as described above. […]"}, "HT-29": {"system": "HT-29", "experiment": "Cell culture and GI50 determination (resazurin)", "conditions": "Homo sapiens; HT-29, resazurin", "procedure": "MDA-MB-231, HT-29, KM12, HOP-92 and A498 cells were plated at 10,000 cells per well (100 µL per well) in 96-well culture dishes and allowed to incubate for 24 h. The old media was removed, the cells were washed with PBS (phosphate-buffered saline) and fresh media was added. A 5 mmol/L solution of inhibitor (in 100% DMSO) was serially diluted in the culture media (12 different concentrations were used) and allowed to incubate for 72 h (MDA-MB-231) or 48h (A498). Control cells were treated with the same DMSO concentrations. After the incubation period the media was once more removed and the cells were washed with PBS to then be incubated with fresh media containing 86 nmol/L resazurin. After 3 hours, the fluorescence was quantified using a fluorescence microplate reader (Biotek, FLx800™) at the respective excitation and emission wavelength of 560 and 590 nm. Resazurin becomes fluorescent under mitochondrial reduction and its emission directly correlates with the metabolic stability of the cells. The measured fluorescence values were corrected from the control samples containing DMSO and GI50 values were determined by plotting the fraction of metabolically active cells against the log of the drug concentration. All measurements were performed at least in triplicate."}, "Breast HS578T": {"system": "Breast HS578T", "experiment": "NCI DTP Human Tumor Cell Line Screen (SRB)", "conditions": "Hs-578T, 48 h", "procedure": "(§1) Compound 2 was further screened against cancer cell lines by the National Cancer Institute (NCI). This screen was performed as per the description provided at http://dtp.nci.nih.gov/branches/btb/ivclsp.html. \"The NCI 60 panel cell lines were grown in RPMI 1640 medium supplemented with 5% (v/v) fetal bovine serum and 2 mM L-glutamine at 37° C, 5 % CO2, 95 % air and 100 % relative humidity. Cells were seeded at 5,000 - 40,000 cells/well depending on their doubling time. After 24 hours of incubation, DMSO stock solutions of the compounds (400X) were added at 5 different concentrations (in […] serial dilutions). After 48 h cells were fixed with trichloroacetic acid (10% or 16% final concentration for adherent cells and suspension cells respectively) and incubated for 60 minutes at 4°C. After discarding the supernatant, plates were washed with water (5x) and air dried. Sulforhodamine B (SRB) solution (100 µl) at 0.4 % (w/v) in 1% acetic acid was added to each well and incubated for 10 minutes at 4°C, followed by washing with 1% acetic acid (5x) and air drying. The bound stain was solubilized with 10mM trizma base and determined by absorbance measurement on an automated plate reader at a wavelength of 515 nm. The percentage growth inhibition was calculated as followed, being Tz time zero measurements, C control growth measurements and Ti test growth experiments in the present of the drug. [(Ti-Tz)/(C-Tz)] x 100 for concentrations for which Ti>/=Tz [(Ti-Tz)/Tz] x 100 for concentrations for which Ti<Tz.\n(§2) Three dose response parameters were calculated for each cell line. Growth inhibition of 50% (GI50) is calculated from [(Ti-Tz)/(C-Tz)] x 100 = 50 and corresponds to the drug concentration required in order to reduce by 50% the net protein increase in comparison to the control experiments. Total growth inhibition (TGI) is calculated from Ti = Tz. The LC50 indicates the drug concentration needed to reduce by 50% the measured protein at the end of the drug treatment as compared to that of the beginning and is derived from [(Ti-Tz)/Tz] x 100 = -50.\" Table 2: GI50 in a selection of cancer cell lines of the National Cancer Institute for compound 2"}, "Breast MDA-MB-231": {"system": "Breast MDA-MB-231", "experiment": "NCI DTP Human Tumor Cell Line Screen (SRB)", "conditions": "Breast MDA-MB-231, 48 h", "procedure": "as §1, §2"}, "CNS SNB75": {"system": "CNS SNB75", "experiment": "NCI DTP Human Tumor Cell Line Screen (SRB)", "conditions": "SNB-75, CNS SNB75, 48 h", "procedure": "as §1, §2"}, "Colon HT29": {"system": "Colon HT29", "experiment": "NCI DTP Human Tumor Cell Line Screen (SRB)", "conditions": "HT-29, Colon HT29, 48 h", "procedure": "as §1, §2"}, "Leukemia K562": {"system": "Leukemia K562", "experiment": "NCI DTP Human Tumor Cell Line Screen (SRB)", "conditions": "Leukemia K562, 48 h", "procedure": "as §1, §2"}, "NSCLC HOP92": {"system": "NSCLC HOP92", "experiment": "NCI DTP Human Tumor Cell Line Screen (SRB)", "conditions": "HOP-92, NSCLC HOP92, 48 h", "procedure": "as §1, §2"}, "Renal A498": {"system": "Renal A498", "experiment": "NCI DTP Human Tumor Cell Line Screen (SRB)", "conditions": "Renal A498, 48 h", "procedure": "as §1, §2"}, "Renal RXF393": {"system": "Renal RXF393", "experiment": "NCI DTP Human Tumor Cell Line Screen (SRB)", "conditions": "RXF 393, Renal RXF393, 48 h", "procedure": "as §1, §2"}, "[1]": {"system": "NCI-60 panel of cancer cell-lines", "experiment": "NCI-60 DTP Human Tumor Cell Line Screen at 5 doses (whole panel)", "conditions": "SNB-75, K562, A498, LOX IMV1, HS 578T and MDA-MB-231 among others (Fig. 5)", "procedure": "Compound 2 was screened by the National Cancer Institute (NCI) at 5 doses on the NCI-60 DTP Human Tumor Cell Line Screen.\nas §1, with “After discarding the supernatant, plates were washed with water (5x) and air dried. Sulforhodamine B (SRB) solution (100 µl) at 0.4 % (w/v) in 1% acetic acid was added to each well and incubated for 10 minutes at 4°C, followed by washing with 1% acetic acid (5x) and air drying.” left out, “[(Ti-Tz)/(C-Tz)] x 100 for concentrations for which Ti>/=Tz [(Ti-Tz)/Tz] x 100 for concentrations for which Ti<Tz.” left out\nThree dose response parameters were calculated for each cell line. […] Total growth inhibition (TGI) is calculated from Ti = Tz. […]"}},
  "data": [
    {"smiles": "Cc1ccc(O)cc1-n1c(N)c(C(N)=O)c2nc3ccccc3nc21", "note": "[Compound 2, 2-Amino-1-(5-hydroxy-2-methylphenyl)-1H-pyrrolo[2,3-b]quinoxaline-3-carboxamide]", "values": [
      {"measurement": "GI50", "setting": "K562", "result": 1050, "unit": "nM"},
      {"measurement": "GI50", "setting": "HT-29", "result": 4590, "unit": "nM"},
      {"measurement": "GI50", "setting": "Breast HS578T", "result": 100, "unit": "nM"},
      {"measurement": "GI50", "setting": "Breast MDA-MB-231", "result": 317, "unit": "nM"},
      {"measurement": "GI50", "setting": "CNS SNB75", "result": 28, "unit": "nM"},
      {"measurement": "GI50", "setting": "Colon HT29", "result": 244, "unit": "nM"},
      {"measurement": "GI50", "setting": "Leukemia K562", "result": 229, "unit": "nM"},
      {"measurement": "GI50", "setting": "NSCLC HOP92", "result": 152, "unit": "nM"},
      {"measurement": "GI50", "setting": "Renal A498", "result": 162, "unit": "nM"},
      {"measurement": "GI50", "setting": "Renal RXF393", "result": 361, "unit": "nM"},
      {"measurement": "potency (GI50 and/or TGI and/or LC50) relative to select cell-lines", "setting": "[1]", "result": "high potency"}
    ]}
  ]
}
